Patent publication US20110136897A1, “TOLL-LIKE RECEPTOR 9 AGONISTS FOR THE TREATMENT OF ANXIETY-RELATED DISORDERS AND INFLAMMATORY DISORDERS” (YISSUM RESEARCH DEVELOPMENT COMPANY OF THE HEBREW …, priority 2008, published 2011)
In the oligonucleotide strings, read from the 5' end, every base follows the letter of its sugar. An asterisk marks phosphorothioate; unmarked linkages are phosphodiester. Other units and linkages are bracketed, terminal groups are in braces. A string of capitals states the bases alone. d = 2'-deoxy (DNA)

Columns and labels:
RAW264.7 cells [1] = experiment: Nitric oxide (NO) production, Griess reaction; type: cell-based, mouse; settings: with 1 μM mEN101
RAW264.7 cells [2] = experiment: Nitric oxide (NO) production, Griess reaction; type: cell-based, mouse; settings: for effect on 10 μM mEN101-driven increases in NO: added with 10 μM mEN101
Procedure: The mouse macrophage cell line RAW 264.7 (ATCC, Bethesda, Md.) was cultured in Dulbecco's modified Eagle's medium (DMEM) (Biological Industries) supplemented with 10% heat-inactivated fetal bovine serum (Biological Industries, Israel), 100 μg/ml streptomycin, 100 U/ml penicillin (Sigma) and 2 mM 1-glutamine (Biological Industries) at 37° C. in a humidified atmosphere with 5% CO2.
(§1) Determination of nitric oxide (NO) production: Nitrite concentration in the medium of cultured cells was measured as an indicator of NO production according to the Griess reaction. 1×10^5 mouse RAW264.7 cells were grown in 0.5 ml medium in 48-wells plate until 80% confluence was obtained. […] (1% sulfanilamide, 0.1% naphthylethylenediamine dihydrochloride, 5% H3PO4). Absorbance was read at 540 nm after 10 min using SPECTRAFluor Plus spectrophotometer (TECAN, UK).
To further characterize the TLR9 activating features of mEN101, mEN101 was applied to RAW264.7 cells (n=4 repeats) for 24 hours and the subsequent production of inflammatory markers was quantified. […] Addition of chloroquine (CQ), a weak base that perturbs endosomal pH and thus disturbs endosomal maturation, as well as the specific TLR9 inhibiting oligonucleotides ODN2088 and ODN TTAGGG (17), all blocked the 10 μM mEN101-driven increases in NO (p<0.015) (FIG. 2A). Thus, both gain and loss of function tests validated the nature of mEN101 as an endosomally active TLR9 activator, albeit a weak one.

RAW264.7 cells [3] = experiment: RT-PCR of inflammatory genes in RAW264.7 cells (Table 2); type: cell-based, mouse; settings: 1 ug/ml
Procedure: Real-time PCR (RT-PCR): Brains were dissected and tissues stored frozen at −70° C. until use. Hippocampal RNA was extracted using the RNeasy Tissue Mini Kit (Qiagen, Germany). Total RNA was reverse-transcribed (200 ng) using Impromp-II reverse transcriptase (Promega, Madison, Wis.) as instructed. RT-PCR was performed using Power SYBR®Green PCR Master Mix (Applied Biosystems, UK) in a 7900 HT Sequence Detection System (Applied Biosystems, Foster City, Calif.). Quantification was assessed at the logarithmic phase of the PCR reaction. The PCR annealing temperature was 60° C. for all primer pairs. GAPDH was used as a house-keeping gene.
Shown are fold differences in RT-PCR products of RAW264.7 cells incubated with the noted doses of mEN101 or ODN1826. Note that ODN1826 affects IL1α, -1β, -6, -10, -12 and ICAM-1 gene expression at concentrations as low as 10 nM, whereas considerably higher doses of mEN101 are needed to attain similar effects. Nevertheless, mEN101 affects inflammatory gene expression even at 10 nM. 1 μg/ml LPS was used as positive control. (n=3, p<0.05 Mann-Whitney U-test compared to untreated controls, for all the data shown).

[4] = target: T1, glucocorticoid receptor (GR) (Mus musculus, UniProt P06537); experiment: Glucocorticoid receptor whole cell [3H]dexamethasone binding assay, RAW264.7; type: cell-based; parameters: host or cells: RAW264.7 (mouse macrophage cell line)
T1 sequence (P06537 1-792): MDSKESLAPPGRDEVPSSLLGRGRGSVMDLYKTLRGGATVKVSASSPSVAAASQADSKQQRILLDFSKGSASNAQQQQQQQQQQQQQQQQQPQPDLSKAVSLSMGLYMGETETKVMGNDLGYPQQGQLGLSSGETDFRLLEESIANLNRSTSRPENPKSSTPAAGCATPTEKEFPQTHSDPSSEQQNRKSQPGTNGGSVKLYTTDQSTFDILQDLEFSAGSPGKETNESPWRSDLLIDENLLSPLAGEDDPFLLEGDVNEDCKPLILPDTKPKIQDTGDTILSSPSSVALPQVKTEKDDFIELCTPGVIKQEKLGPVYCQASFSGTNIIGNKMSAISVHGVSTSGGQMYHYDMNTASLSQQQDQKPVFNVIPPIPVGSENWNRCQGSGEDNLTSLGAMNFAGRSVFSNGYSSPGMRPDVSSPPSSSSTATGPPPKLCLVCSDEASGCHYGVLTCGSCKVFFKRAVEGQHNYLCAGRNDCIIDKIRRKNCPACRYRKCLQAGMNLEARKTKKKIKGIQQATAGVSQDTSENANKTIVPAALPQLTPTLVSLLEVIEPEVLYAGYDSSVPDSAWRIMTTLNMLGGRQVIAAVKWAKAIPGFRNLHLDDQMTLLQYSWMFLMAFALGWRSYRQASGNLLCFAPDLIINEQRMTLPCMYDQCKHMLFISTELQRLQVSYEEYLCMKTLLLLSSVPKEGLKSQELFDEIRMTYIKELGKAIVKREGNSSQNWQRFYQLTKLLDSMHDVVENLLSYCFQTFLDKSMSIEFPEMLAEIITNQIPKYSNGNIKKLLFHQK
Procedure: Glucocorticoid receptor assay: A whole cell binding assay was used to determine GR number and affinity. 0.7×10^6 RAW264.7 cells in 2 ml medium were grown in 24-wells plates until 80% confluence was obtained. After the appropriate treatment, the medium was replaced with a saturating concentration of 50 nM [^3H]dexamethasone (85.0 Ci/mmol) (Amersham Biosciences, NJ, USA) in 5 μM unlabeled dexamethasone (Sigma, Israel). After incubation for 2 hours at 37° C., cells were washed 6 times with cold PBS and lysed in 1M NaOH. Lysates were harvested and counted in a beta-spectrometer.
Since HSP90 modulates GR activity by increasing its affinity to glucocorticoids (GCs) it was wondered whether such an effect could be obtained by activating TLR9. In order to challenge that hypothesis, RAW264.7 cells were incubated with varying concentrations of hEN101 for 24 hours and the medium was subsequently replaced with one containing different concentration of 50 nM [^3H]dexamethasone and 5 μM unlabeled dexamethasone. After a 2 hour incubation, radioactivity was measured in a beta-spectrometer.

RAW264.7 cells [5] = experiment: HSP90 and GR immunostaining and colocalization, confocal microscopy; type: cell-based, mouse; settings: 24 h, 1-10 μM
Procedure: Immunohistochemistry: Cells were fixed with 4% PFA in phosphate-buffered saline (PBS) for 15 minutes at room temperature (RT), washed and transferred to 100% MetOH at −20° C. for 5 minutes. Afterwards, cells were washed twice with a blocking medium containing PBS, 1% bovine serum albumin (BSA) and 0.01% NaN3 and then were incubated for 1 hour at RT with anti-HSP90 and anti-GR antibodies (1:50) (Santa Cruz Biotechnology, CA). After incubation, cells were washed twice in blocking medium and incubated with 1:100 secondary antibodies (Jackson Immunoresearch Laboratories, PA). Slides were mounted onto glass slides and visualized by confocal microscopy.

RAW264.7 cells [6] = experiment: LPS-induced NO production with or without corticosterone after ODN1826 pre-incubation; type: cell-based, mouse; settings: 10 or 50 mM corticosterone, LPS 1 μg/ml, 24 hours
Procedure: as §1, with “nitric oxygen” for “nitric oxide”, “production: The nitrite” for “production: Nitrite”, “medium” for “medium of cultured cells”, “1×10^5” for “1×10^5 mouse”, “10 minutes” for “10 min”
In order to study the functional effects of TLR9 activation on GR signaling, RAW264.7 cells were incubated with varying concentrations of ODN1826 (SEQ ID NO: 2) for 24 hours and the medium was replaced with one containing LPS (1 μg/ml) with or without […] corticosterone (CORT) for an additional 24 hours. As expected, CORT blocked lipopolysaccharide (LPS)-induced NO production.

splenocytes = experiment: IFN-γ induction in splenocytes (ELISA); type: cell-based, mouse; settings: mEN101 even at 10 μM doses
Procedure: Cell cultures: Spleens were removed from 5-6 week old FVB/N mice (Harlan Laboratories, Israel) and mashed until a homogeneous cell suspension was obtained. The suspension was centrifuged in a LSM Lymphocyte Separation Medium (MP Biomedicals, Solon, Ohio) and the mononuclear cell layer was separated. Cells were adjusted to a 5×10^6 cells/ml and cultured in RPMI 1640 (Biological Industries, Israel) supplemented with 5% FCS, […] L-glut, 100 μg/ml streptomycin, 100 U/ml penicillin and 5×10^−5 2-mercaptoethanol (Sigma, Israel).
ELISA: Serum was extracted by centrifuging blood in heparin-containing Microtainer LH vials (BD, Franklin Lakes, N.J.) for 10 minutes at 3000 g. Serum and cell-culture supernatants were analyzed for IL-1β, IL-6, TNF-α and IFN-γ using respective ELISA Ready-SET-Go (eBioscience, San Diego, Calif.) kits as instructed. Intensities were read using a Tecan SPECTRAFluor Plus spectrophotometer (Mannedorf, Switzerland).

Compound: 5′-TTTAGGGTTAGGGTTAGGGTTAGGG-3′ (dT*dT*dT*dA*dG*dG*dG*dT*dT*dA*dG*dG*dG*dT*dT*dA*dG*dG*dG*dT*dT*dA*dG*dG*dG) [ODN TTAGGG]
- effect on mEN101 effects on NO production (FIG. 2A legend) (RAW264.7 cells [1]): abolished
- effect on 10 μM mEN101-driven increases in NO (RAW264.7 cells [2]): blocked

Compound: lipopolysaccharide [LPS, reference compound]
- ICAM-1 RT-PCR product (RAW264.7 cells [3]): −3.74 log2 from NT
- IL1a RT-PCR product (RAW264.7 cells [3]): 8.86 log2 from NT
- IL1b RT-PCR product (RAW264.7 cells [3]): 5.42 log2 from NT
- IL6 RT-PCR product (RAW264.7 cells [3]): 3.81 log2 from NT
- IL10 RT-PCR product (RAW264.7 cells [3]): 3.20 log2 from NT
- IL12 RT-PCR product (RAW264.7 cells [3]): 8.75 log2 from NT

Compound: CCN(CC)CCCC(C)Nc1ccnc2cc(Cl)ccc12 (centres unmarked) [chloroquine]
- effect on mEN101 effects on NO production (FIG. 2A legend) (RAW264.7 cells [1]): abolished
- effect on 10 μM mEN101-driven increases in NO (RAW264.7 cells [2]): blocked

Compound: 5′-CTGCCACGTTCTCCTGCA*C*C*-3′ [hEN101]
- DEX (GR) Bmax, Scatchard plot analysis ([4]; 10 μM per FIG. 10D legend): increased
- concentration from which effects on [3H]dexamethasone incorporation are detectable ([4]; 24 hours pre-incubation): ≥ 1 µM
- whole cell [3H]dexamethasone incorporation / binding ([4]; 24 hours pre-incubation, dose-dependent): increased [^3H]dexamethasone incorporation
- GR level (RAW264.7 cells [5]): not GR
- colocalization of HSP90 and GR signals (RAW264.7 cells [5]): increased colocalization of HSP90 and GR signals
- HSP90 level (RAW264.7 cells [5]; dose dependent): upregulated HSP90

Compound: C[C@]12C[C@H](O)[C@H]3[C@@H](CCC4=CC(=O)CC[C@@]43C)[C@@H]1CC[C@@H]2C(=O)CO [CORT, corticosterone]
- LPS-induced NO production (RAW264.7 cells [6]): blocked

Compound: 5′-ggGGTCAACGTTGAgggggg (GGGGTCAACGTTGAGGGGGG; listed as DNA, chemistry not given here) [ODN1585, type-A CpG ODN, Invivogen]
- induction of IFN-γ (splenocytes): stronger for ODN1585 than ODN1826
- NO production at doses parallel to ODN1826 (10-100 nM) (RAW264.7 cells [2]; 24 hours): totally ineffective
- dose needed to initiate detectable NO overproduction (RAW264.7 cells [2]; 24 hours): 10 µM
